From patent US11878975B2, “Substituted indole compounds useful as TLR inhibitors” (BRISTOL-MYERS SQUIBB COMPANY, priority 2017, dated 2024)

Experiments:
Format in all cases: cell-based
[1] = molecular target: T1, human TLR9 (Homo sapiens, UniProt Q9NR96); test: TLR9 inhibition reporter assay (HEK-Blue cells, SEAP reporter, ODN2006 stimulation); conditions: HEK-Blue cells overexpressing human TLR9, SEAP reporter, ODN2006 5 nM
T1 construct: host or cells: HEK-Blue cells
T1 sequence (Q9NR96 26-1032): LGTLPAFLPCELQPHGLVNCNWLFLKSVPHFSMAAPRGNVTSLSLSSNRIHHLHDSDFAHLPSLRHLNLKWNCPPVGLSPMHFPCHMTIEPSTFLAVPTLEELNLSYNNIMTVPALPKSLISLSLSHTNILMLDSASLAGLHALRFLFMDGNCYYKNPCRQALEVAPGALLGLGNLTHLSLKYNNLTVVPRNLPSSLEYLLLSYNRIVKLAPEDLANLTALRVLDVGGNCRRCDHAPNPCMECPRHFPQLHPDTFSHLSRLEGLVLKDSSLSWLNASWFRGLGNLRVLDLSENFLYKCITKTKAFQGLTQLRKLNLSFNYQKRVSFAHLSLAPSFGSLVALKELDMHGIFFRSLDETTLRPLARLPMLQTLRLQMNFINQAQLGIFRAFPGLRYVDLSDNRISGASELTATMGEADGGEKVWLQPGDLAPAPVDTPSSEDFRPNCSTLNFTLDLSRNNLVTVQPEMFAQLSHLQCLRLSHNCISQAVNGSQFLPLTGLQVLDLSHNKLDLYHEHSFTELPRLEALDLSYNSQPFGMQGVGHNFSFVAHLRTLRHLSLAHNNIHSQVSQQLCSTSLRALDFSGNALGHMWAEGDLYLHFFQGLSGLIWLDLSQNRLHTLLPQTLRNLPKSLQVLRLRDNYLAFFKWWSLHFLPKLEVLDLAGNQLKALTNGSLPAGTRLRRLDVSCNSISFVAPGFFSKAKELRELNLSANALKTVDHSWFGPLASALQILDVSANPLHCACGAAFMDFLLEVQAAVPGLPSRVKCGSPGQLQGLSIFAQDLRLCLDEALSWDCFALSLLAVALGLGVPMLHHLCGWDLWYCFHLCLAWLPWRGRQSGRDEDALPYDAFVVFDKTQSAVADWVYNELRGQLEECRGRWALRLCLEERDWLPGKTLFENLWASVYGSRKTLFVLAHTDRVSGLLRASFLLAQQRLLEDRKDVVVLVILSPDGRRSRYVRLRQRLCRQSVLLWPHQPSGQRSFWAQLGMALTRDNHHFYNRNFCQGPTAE
Method in brief: (§1)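 Ligand levels: TLR7 gardiquimod 7.5 μM, TLR8 R848 15.9 μM, TLR9 ODN2006 5 nM, added after 30 min room-temperature compound pre-incubation at 0.05 nM-50 μM. Reporter SEAP read with HEK-Blue Detection reagent after 22 h, 37° C. Inhibition expressed as % reduction relative to agonist-plus-DMSO and known-inhibitor controls.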

[2] = molecular target: T2, human TLR8 (Homo sapiens, UniProt Q9NR97); test: TLR8 inhibition reporter assay (HEK-Blue cells, SEAP reporter, R848 stimulation); conditions: HEK-Blue cells overexpressing human TLR8, SEAP reporter, R848 15.9 μM
T2 construct: host or cells: HEK-Blue cells
T2 sequence (Q9NR97 27-1041): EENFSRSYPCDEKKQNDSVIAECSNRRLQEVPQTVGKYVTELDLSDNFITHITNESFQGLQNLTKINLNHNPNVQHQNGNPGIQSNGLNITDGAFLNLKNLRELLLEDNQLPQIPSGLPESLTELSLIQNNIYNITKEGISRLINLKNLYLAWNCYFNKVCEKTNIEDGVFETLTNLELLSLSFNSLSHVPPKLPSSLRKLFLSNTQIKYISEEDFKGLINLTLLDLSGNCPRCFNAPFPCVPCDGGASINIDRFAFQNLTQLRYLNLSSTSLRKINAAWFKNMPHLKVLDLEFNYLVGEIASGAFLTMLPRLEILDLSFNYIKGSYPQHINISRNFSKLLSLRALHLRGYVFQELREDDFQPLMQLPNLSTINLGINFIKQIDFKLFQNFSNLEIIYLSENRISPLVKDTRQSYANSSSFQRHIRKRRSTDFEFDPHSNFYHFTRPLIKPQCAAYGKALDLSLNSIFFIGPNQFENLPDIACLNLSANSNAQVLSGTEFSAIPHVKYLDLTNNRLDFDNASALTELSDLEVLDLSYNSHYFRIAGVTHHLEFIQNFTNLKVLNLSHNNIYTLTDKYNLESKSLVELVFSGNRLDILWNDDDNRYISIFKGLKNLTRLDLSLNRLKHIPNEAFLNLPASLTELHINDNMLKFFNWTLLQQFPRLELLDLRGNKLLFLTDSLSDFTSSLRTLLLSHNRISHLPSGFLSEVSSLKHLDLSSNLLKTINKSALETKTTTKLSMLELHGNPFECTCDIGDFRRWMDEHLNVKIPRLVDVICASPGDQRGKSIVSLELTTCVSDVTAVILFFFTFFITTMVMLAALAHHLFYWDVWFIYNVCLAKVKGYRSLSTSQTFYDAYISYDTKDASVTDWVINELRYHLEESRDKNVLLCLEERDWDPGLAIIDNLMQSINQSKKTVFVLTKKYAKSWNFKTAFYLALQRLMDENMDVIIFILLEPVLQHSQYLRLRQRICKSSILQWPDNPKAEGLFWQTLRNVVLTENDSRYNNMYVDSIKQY
Method in brief: as §1

[3] = molecular target: T3, human TLR7 (Homo sapiens, UniProt Q9NYK1); test: TLR7 inhibition reporter assay (HEK-Blue cells, SEAP reporter, gardiquimod stimulation); conditions: HEK-Blue cells overexpressing human TLR7, SEAP reporter, gardiquimod 7.5 μM
T3 construct: host or cells: HEK-Blue cells
T3 sequence (Q9NYK1 27-1049): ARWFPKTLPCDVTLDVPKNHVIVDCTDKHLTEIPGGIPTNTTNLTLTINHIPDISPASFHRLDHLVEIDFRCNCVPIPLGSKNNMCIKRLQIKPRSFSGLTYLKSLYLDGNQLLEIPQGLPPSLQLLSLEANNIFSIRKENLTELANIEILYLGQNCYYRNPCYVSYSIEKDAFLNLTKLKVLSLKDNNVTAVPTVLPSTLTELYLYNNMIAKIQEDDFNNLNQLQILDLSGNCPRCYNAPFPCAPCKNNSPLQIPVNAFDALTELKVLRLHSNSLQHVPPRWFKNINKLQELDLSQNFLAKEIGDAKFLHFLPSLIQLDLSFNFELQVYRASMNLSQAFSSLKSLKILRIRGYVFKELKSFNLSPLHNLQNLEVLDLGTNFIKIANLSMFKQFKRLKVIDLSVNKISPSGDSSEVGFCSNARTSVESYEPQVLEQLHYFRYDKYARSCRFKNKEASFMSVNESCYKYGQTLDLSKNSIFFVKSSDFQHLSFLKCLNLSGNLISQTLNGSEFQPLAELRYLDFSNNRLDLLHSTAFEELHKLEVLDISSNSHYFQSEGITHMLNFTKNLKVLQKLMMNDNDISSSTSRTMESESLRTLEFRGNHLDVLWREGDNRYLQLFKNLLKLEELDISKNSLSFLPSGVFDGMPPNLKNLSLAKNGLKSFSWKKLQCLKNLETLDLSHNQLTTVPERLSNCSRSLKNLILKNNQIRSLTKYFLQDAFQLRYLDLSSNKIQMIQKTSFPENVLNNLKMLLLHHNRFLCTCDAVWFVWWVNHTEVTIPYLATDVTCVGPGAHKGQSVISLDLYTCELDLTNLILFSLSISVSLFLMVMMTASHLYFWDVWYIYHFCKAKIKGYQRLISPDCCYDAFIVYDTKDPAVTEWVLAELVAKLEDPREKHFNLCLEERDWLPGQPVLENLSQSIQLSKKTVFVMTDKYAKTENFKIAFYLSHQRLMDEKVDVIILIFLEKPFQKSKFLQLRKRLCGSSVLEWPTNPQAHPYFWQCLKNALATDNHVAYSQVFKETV
Method in brief: as §1

In the case of `COc1cc(-c2[nH]c3ccc(C4CCC(N5CCOCC5)CC4)cc3c2C(C)C)cn2ncnc12` (stereo not drawn) [Example 69], the IC50 [1] is reported as 1670 nM, the IC50 [2] is reported as 0.59 nM and the IC50 [3] is reported as 0.22 nM.

Molecule `CNC(=O)CNC1CCC(c2ccc3[nH]c(-c4cc(C)c5ncnn5c4)c(C(C)C)c3c2)CC1` (single isomer, unassigned) [Example 163, 2-((4-(3-isopropyl-2-(8-methyl-[1,2,4]triazolo[1,5-a]pyridin-6-yl)-1H-indol-5-yl)cyclohexyl)amino)-N-methylacetamide] has an IC50 [1] of 2240 nM, an IC50 [2] of 0.64 nM and an IC50 [3] of 0.63 nM.

`Cc1cc(-c2[nH]c3ccc(C4CCC(O)CC4)cc3c2C(C)C)ccn1` (stereo not drawn) [Example 174] gave an IC50 [1] of over 50000 nM, an IC50 [2] of 518 nM and an IC50 [3] of 164 nM.

Work on `Cc1c(-c2[nH]c3ccc(CC4CCCN4C4COC4)cc3c2C(C)C)cn2cnnc2c1C` (stereo not drawn) [Example 427] yielded an IC50 [1] of 17600 nM, an IC50 [2] of 19 nM and an IC50 [3] of 12 nM.

In the case of `COc1cc(-c2[nH]c3ccc(C4CCC(N5CCNC(=O)C5)CC4)cc3c2C(C)C)cn2ncnc12` (stereo not drawn) [Example 71], the IC50 [1] is reported as 4410 nM, the IC50 [2] is reported as 2.7 nM and the IC50 [3] is reported as 0.68 nM.

In the case of `COc1cc(-c2[nH]c3ccc(C4CCCN(C5COC5)C4)cc3c2C(C)C)cn2ncnc12` (stereo not drawn) [Example 237], the IC50 [1] is reported as 21200 nM, the IC50 [2] is reported as 38 nM and the IC50 [3] is reported as 15 nM.
